US11713338B2, “Cyclic peptides multimers targeting α-4-β-7 integrin” (priority 2016, dated 2023)

Each compound was assayed against T1, integrin α4β1 (RAMOS human cells adhering to VCAM-1) (Homo sapiens, UniProt P05556+P13612) (assay: Integrin α4β1-VCAM cell adhesion assay (RAMOS cells)). Details: Ramos cells adhering to VCAM; read-out: Ramos Adhesion α4β1/VCAM IC50.
T1 construct: Ramos cells, which express integrin α4β1; host or cells: RAMOS
Format: cell-based
Protocol: Integrin α4β1-VCAM Cell Adhesion Assay
The plate was incubated overnight at 4° C. and washed twice with 150 μl per well wash buffer (0.05% Tween 20 in PBS), blocked with 250 μl per well blocking buffer (1% non-fat dry milk in PBS), for 1 hour at room temperature. During blocking step, RAMOS cells were resuspended at 10 million cells/ml in PBS containing […] and incubated at 37° C. for 30 min in a 50 ml tube. […] The plate was emptied by inverting and blotting on paper towels and washed manually twice with PBS. […] To calculate the dose response, the fluorescence value of control wells not containing cells was subtracted from each test well.

T1 sequence (P05556 21-798, one chain of several): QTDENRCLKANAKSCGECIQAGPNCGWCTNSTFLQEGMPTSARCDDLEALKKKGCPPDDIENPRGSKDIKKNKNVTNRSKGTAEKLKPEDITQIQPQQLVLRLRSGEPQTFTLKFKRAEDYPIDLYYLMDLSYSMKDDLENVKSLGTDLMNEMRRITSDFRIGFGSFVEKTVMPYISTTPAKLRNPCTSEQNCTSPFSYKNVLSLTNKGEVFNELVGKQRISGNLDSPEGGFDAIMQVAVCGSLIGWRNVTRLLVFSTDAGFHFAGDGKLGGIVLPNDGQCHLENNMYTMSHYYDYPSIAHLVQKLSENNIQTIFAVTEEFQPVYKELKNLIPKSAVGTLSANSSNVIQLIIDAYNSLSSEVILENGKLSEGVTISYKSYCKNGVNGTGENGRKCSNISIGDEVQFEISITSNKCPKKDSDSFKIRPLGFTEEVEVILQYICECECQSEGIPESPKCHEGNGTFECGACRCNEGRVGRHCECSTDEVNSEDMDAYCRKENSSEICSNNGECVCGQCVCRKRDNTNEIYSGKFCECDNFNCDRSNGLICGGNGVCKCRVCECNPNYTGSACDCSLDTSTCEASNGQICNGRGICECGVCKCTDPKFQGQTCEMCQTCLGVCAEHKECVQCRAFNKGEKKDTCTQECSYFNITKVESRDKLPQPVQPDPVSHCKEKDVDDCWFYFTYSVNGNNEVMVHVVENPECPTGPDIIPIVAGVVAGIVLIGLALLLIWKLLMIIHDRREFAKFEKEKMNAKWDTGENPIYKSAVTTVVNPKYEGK

Structure (SMILES) | IC50
CC(C)C[C@@H]1NC(=O)c2ccc(-c3ccc(N4CCN(C(=O)CCOCCOCCNC(=O)COCC(=O)NCCOCCOCCC(=O)N5CCN(c6ccc(-c7ccc8cc7CNC(=O)[C@@H]7CCCN7[C@H](C(=O)NC(C)(C)C)[C@H](C)NC(=O)[C@H]([C@@H](C)O)NC(=O)[C@H](CC(=O)O)NC(=O)[C@H](CC(C)C)NC8=O)cc6)CC5)CC4)cc3)c(c2)CNC(=O)[C@@H]2CCCN2[C@H](C(=O)NC(C)(C)C)[C@H](C)NC(=O)[C@H]([C@@H](C)O)NC(=O)[C@H](CC(=O)O)NC1=O [Compound 506] | 11 µM
CC(C)C[C@@H]1NC(=O)c2ccc(-c3ccc(N4CCN(C(=O)c5cc6ccccc6c(Cc6c(O)c(C(=O)N7CCN(c8ccc(-c9ccc%10cc9CNC(=O)[C@@H]9CCCN9[C@H](C(=O)NC(C)(C)C)[C@H](C)NC(=O)[C@H]([C@@H](C)O)NC(=O)[C@H](CC(=O)O)NC(=O)[C@H](CC(C)C)NC%10=O)cc8)CC7)cc7ccccc67)c5O)CC4)cc3)c(c2)CNC(=O)[C@@H]2CCCN2[C@H](C(=O)NC(C)(C)C)[C@H](C)NC(=O)[C@H]([C@@H](C)O)NC(=O)[C@H](CC(=O)O)NC1=O [Compound 502] | 0.779 µM

Same assay, conditions: ratio of cell adhesion IC50s, Ramos α4β1/VCAM over RPMI8866 α4β7/MAdCAM

Structure (SMILES) | Ratio Ramos/RPMI
CC(C)C[C@@H]1NC(=O)c2ccc(-c3ccc(N4CCN(C(=O)c5cc6ccccc6c(Cc6c(O)c(C(=O)N7CCN(c8ccc(-c9ccc%10cc9CNC(=O)[C@@H]9CCCN9[C@H](C(=O)NC(C)(C)C)[C@H](C)NC(=O)[C@H]([C@@H](C)O)NC(=O)[C@H](CC(=O)O)NC(=O)[C@H](CC(C)C)NC%10=O)cc8)CC7)cc7ccccc67)c5O)CC4)cc3)c(c2)CNC(=O)[C@@H]2CCCN2[C@H](C(=O)NC(C)(C)C)[C@H](C)NC(=O)[C@H]([C@@H](C)O)NC(=O)[C@H](CC(=O)O)NC1=O [Compound 502] | 8

These compounds were tested against T2, integrin α4β7 (RPMI8866 human cells adhering to MAdCAM-1) (Homo sapiens, UniProt P13612+P26010) (assay: Integrin α4β7-MAdCAM cell adhesion assay (RPMI8866 cells)). Details: RPMI8866 cells adhering to MAdCAM; read-out: RPMI8866 Adhesion α4β7/MAdCAM IC50.
T2 construct: RMP18866 cells, which express integrin α4β7; host or cells: RPMI8866
T2 sequence (P13612 34-1032): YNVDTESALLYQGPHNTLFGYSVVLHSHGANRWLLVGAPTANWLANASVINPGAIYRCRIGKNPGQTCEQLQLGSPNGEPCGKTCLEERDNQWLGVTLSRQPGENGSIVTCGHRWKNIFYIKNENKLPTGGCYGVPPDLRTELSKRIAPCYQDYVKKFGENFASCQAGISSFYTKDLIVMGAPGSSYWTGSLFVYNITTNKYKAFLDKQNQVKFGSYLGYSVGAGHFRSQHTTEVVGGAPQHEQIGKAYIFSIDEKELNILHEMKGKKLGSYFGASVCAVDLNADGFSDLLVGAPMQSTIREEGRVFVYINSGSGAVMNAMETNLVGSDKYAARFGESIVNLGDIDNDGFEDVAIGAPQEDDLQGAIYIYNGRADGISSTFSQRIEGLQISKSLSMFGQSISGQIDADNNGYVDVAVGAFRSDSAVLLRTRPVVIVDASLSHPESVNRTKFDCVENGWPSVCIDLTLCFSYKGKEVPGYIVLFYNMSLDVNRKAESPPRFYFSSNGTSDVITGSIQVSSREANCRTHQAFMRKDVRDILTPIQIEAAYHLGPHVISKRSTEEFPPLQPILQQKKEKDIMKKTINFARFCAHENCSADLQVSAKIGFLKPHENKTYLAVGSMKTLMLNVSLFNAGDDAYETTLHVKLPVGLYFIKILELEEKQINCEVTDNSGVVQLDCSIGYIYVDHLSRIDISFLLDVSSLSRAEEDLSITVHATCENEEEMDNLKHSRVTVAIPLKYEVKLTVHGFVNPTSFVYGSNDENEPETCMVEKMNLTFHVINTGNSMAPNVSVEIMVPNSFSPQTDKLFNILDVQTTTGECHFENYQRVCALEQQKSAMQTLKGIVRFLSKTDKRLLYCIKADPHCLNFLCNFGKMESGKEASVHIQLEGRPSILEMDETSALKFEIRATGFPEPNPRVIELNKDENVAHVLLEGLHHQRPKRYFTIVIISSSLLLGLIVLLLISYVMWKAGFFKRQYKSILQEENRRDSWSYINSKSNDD
T2 sequence (P26010 20-798): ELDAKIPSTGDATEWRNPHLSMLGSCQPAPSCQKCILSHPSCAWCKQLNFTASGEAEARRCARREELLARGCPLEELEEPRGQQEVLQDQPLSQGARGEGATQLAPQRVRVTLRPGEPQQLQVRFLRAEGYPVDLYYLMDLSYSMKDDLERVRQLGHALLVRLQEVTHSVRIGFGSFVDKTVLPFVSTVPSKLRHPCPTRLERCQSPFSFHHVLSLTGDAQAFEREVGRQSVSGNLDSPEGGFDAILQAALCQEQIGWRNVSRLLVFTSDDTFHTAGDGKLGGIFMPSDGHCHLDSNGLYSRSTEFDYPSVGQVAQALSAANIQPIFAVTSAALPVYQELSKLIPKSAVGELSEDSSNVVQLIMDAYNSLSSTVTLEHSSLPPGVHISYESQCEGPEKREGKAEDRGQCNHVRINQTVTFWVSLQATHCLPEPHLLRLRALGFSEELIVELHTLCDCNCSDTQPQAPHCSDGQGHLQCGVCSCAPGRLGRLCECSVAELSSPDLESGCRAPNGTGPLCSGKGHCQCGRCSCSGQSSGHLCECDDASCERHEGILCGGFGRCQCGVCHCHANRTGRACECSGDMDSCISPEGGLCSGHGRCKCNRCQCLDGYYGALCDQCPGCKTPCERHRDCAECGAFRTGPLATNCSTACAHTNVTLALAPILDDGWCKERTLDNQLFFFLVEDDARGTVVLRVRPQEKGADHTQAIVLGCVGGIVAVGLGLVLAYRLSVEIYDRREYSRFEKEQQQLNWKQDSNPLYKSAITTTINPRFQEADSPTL
Format: cell-based
Protocol: Integrin α4β7-MAdCAM Cell Adhesion Assay
RPMI8866 cells were resuspended at 10 million cells/ml in PBS containing […] and incubated at 37° C. for 30 min in a 50 ml tube. […] The plate was emptied by inverting and blotting on paper towels and washed manually twice with PBS. 100 μl PBS was then added to each well. […] To calculate the dose response, the fluorescence value of control wells not containing cells was subtracted from each test well.

Structure (SMILES) | IC50
CC(C)C[C@@H]1NC(=O)[C@H]2Cc3ccccc3CN2C(=O)[C@H](Cc2cccc(CNC(=O)CCCCCCCC(=O)NCc3cccc(C[C@@H]4NC(=O)[C@@H]5CCCN5[C@H](C(=O)NC(C)(C)C)[C@H](C)NC(=O)[C@H]([C@@H](C)O)NC(=O)[C@H](CC(=O)O)NC(=O)[C@H](CC(C)C)NC(=O)[C@H]5Cc6ccccc6CN5C4=O)c3)c2)NC(=O)[C@@H]2CCCN2[C@H](C(=O)NC(C)(C)C)[C@H](C)NC(=O)[C@H]([C@@H](C)O)NC(=O)[C@H](CC(=O)O)NC1=O [Compound 529] | 0.047 µM
CC(C)C[C@@H]1NC(=O)c2ccc(-c3ccc(N4CCN(C(=O)c5cccc(C(=O)N6CCN(c7ccc(-c8ccc9cc8CNC(=O)[C@@H]8CCCN8[C@H](C(=O)NC(C)(C)C)[C@H](C)NC(=O)[C@H]([C@@H](C)O)NC(=O)[C@H](CC(=O)O)NC(=O)[C@H](CC(C)C)NC9=O)cc7)CC6)n5)CC4)cc3)c(c2)CNC(=O)[C@@H]2CCCN2[C@H](C(=O)NC(C)(C)C)[C@H](C)NC(=O)[C@H]([C@@H](C)O)NC(=O)[C@H](CC(=O)O)NC1=O [Compound 472] | 0.08 µM
CC(C)C[C@@H]1NC(=O)c2ccc(-c3ccc(N4CCN(C(=O)Cc5ccccc5C(=O)N5CCN(c6ccc(-c7ccc8cc7CNC(=O)[C@@H]7CCCN7[C@H](C(=O)NC(C)(C)C)[C@H](C)NC(=O)[C@H]([C@@H](C)O)NC(=O)[C@H](CC(=O)O)NC(=O)[C@H](CC(C)C)NC8=O)cc6)CC5)CC4)cc3)c(c2)CNC(=O)[C@@H]2CCCN2[C@H](C(=O)NC(C)(C)C)[C@H](C)NC(=O)[C@H]([C@@H](C)O)NC(=O)[C@H](CC(=O)O)NC1=O [Compound 496] | 0.041 µM
CC(C)C[C@@H]1NC(=O)c2ccc(-c3ccc(N4CCN(C(=O)CCOCCOCCOCCOCCOCCOCCOCCC(=O)N5CCN(c6ccc(-c7ccc8cc7CNC(=O)[C@@H]7CCCN7[C@H](C(=O)NC(C)(C)C)[C@H](C)NC(=O)[C@H]([C@@H](C)O)NC(=O)[C@H](CC(=O)O)NC(=O)[C@H](CC(C)C)NC8=O)cc6)CC5)CC4)cc3)c(c2)CNC(=O)[C@@H]2CCCN2[C@H](C(=O)NC(C)(C)C)[C@H](C)NC(=O)[C@H]([C@@H](C)O)NC(=O)[C@H](CC(=O)O)NC1=O [Compound 510] | 0.087 µM
CC(C)C[C@@H]1NC(=O)c2ccc(-c3ccc(N4CCN(C(=O)c5cc6ccccc6c(Cc6c(O)c(C(=O)N7CCN(c8ccc(-c9ccc%10cc9CNC(=O)[C@@H]9CCCN9[C@H](C(=O)NC(C)(C)C)[C@H](C)NC(=O)[C@H]([C@@H](C)O)NC(=O)[C@H](CC(=O)O)NC(=O)[C@H](CC(C)C)NC%10=O)cc8)CC7)cc7ccccc67)c5O)CC4)cc3)c(c2)CNC(=O)[C@@H]2CCCN2[C@H](C(=O)NC(C)(C)C)[C@H](C)NC(=O)[C@H]([C@@H](C)O)NC(=O)[C@H](CC(=O)O)NC1=O [Compound 502] | 0.102 µM

Continued, values first:

IC50 | Structure (SMILES)
0.063 µM | CC(C)C[C@@H]1NC(=O)c2ccc(-c3ccc(N4CCN(C(=O)CCSCCC(=O)N5CCN(c6ccc(-c7ccc8cc7CNC(=O)[C@@H]7CCCN7[C@H](C(=O)NC(C)(C)C)[C@H](C)NC(=O)[C@H]([C@@H](C)O)NC(=O)[C@H](CC(=O)O)NC(=O)[C@H](CC(C)C)NC8=O)cc6)CC5)CC4)cc3)c(c2)CNC(=O)[C@@H]2CCCN2[C@H](C(=O)NC(C)(C)C)[C@H](C)NC(=O)[C@H]([C@@H](C)O)NC(=O)[C@H](CC(=O)O)NC1=O [Compound 473]
0.03 µM | CC(C)C[C@@H]1NC(=O)c2ccc(-c3ccc(N4CCN(C(=O)CC[C@@H](N)C(=O)N5CCN(c6ccc(-c7ccc8cc7CNC(=O)[C@@H]7CCCN7[C@H](C(=O)NC(C)(C)C)[C@H](C)NC(=O)[C@H]([C@@H](C)O)NC(=O)[C@H](CC(=O)O)NC(=O)[C@H](CC(C)C)NC8=O)cc6)CC5)CC4)cc3)c(c2)CNC(=O)[C@@H]2CCCN2[C@H](C(=O)NC(C)(C)C)[C@H](C)NC(=O)[C@H]([C@@H](C)O)NC(=O)[C@H](CC(=O)O)NC1=O [Compound 495]
0.042 µM | CC(C)C[C@@H]1NC(=O)c2ccc(-c3ccc(N4CCN(C(=O)CCCCC(=O)N5CCN(c6ccc(-c7ccc8cc7CNC(=O)[C@@H]7CCCN7[C@H](C(=O)NC(C)(C)C)[C@H](C)NC(=O)[C@H]([C@@H](C)O)NC(=O)[C@H](CC(=O)O)NC(=O)[C@H](CC(C)C)NC8=O)cc6)CC5)CC4)cc3)c(c2)CNC(=O)[C@@H]2CCCN2[C@H](C(=O)NC(C)(C)C)[C@H](C)NC(=O)[C@H]([C@@H](C)O)NC(=O)[C@H](CC(=O)O)NC1=O [Compound 486]
0.04 µM | CC(C)C[C@@H]1NC(=O)c2ccc(-c3ccc(N4CCN(C(=O)CCCCCCCCC(=O)N5CCN(c6ccc(-c7ccc8cc7CNC(=O)[C@@H]7CCCN7[C@H](C(=O)NC(C)(C)C)[C@H](C)NC(=O)[C@H]([C@@H](C)O)NC(=O)[C@H](CC(=O)O)NC(=O)[C@H](CC(C)C)NC8=O)cc6)CC5)CC4)cc3)c(c2)CNC(=O)[C@@H]2CCCN2[C@H](C(=O)NC(C)(C)C)[C@H](C)NC(=O)[C@H]([C@@H](C)O)NC(=O)[C@H](CC(=O)O)NC1=O [Compound 489]
0.033 µM | CC(C)C[C@@H]1NC(=O)c2ccc(-c3ccc(N4CCN(C(=O)C5(C(=O)N6CCN(c7ccc(-c8ccc9cc8CNC(=O)[C@@H]8CCCN8[C@H](C(=O)NC(C)(C)C)[C@H](C)NC(=O)[C@H]([C@@H](C)O)NC(=O)[C@H](CC(=O)O)NC(=O)[C@H](CC(C)C)NC9=O)cc7)CC6)CC5)CC4)cc3)c(c2)CNC(=O)[C@@H]2CCCN2[C@H](C(=O)NC(C)(C)C)[C@H](C)NC(=O)[C@H]([C@@H](C)O)NC(=O)[C@H](CC(=O)O)NC1=O [Compound 459]
0.032 µM | CC(C)C[C@@H]1NC(=O)c2ccc(-c3ccc(N4CCN(C(=O)c5ncn(C)c5C(=O)N5CCN(c6ccc(-c7ccc8cc7CNC(=O)[C@@H]7CCCN7[C@H](C(=O)NC(C)(C)C)[C@H](C)NC(=O)[C@H]([C@@H](C)O)NC(=O)[C@H](CC(=O)O)NC(=O)[C@H](CC(C)C)NC8=O)cc6)CC5)CC4)cc3)c(c2)CNC(=O)[C@@H]2CCCN2[C@H](C(=O)NC(C)(C)C)[C@H](C)NC(=O)[C@H]([C@@H](C)O)NC(=O)[C@H](CC(=O)O)NC1=O [Compound 476]
